Data as given in patent US20250025440A1, “COMPOSITIONS AND METHODS FOR MANAGEMENT OF HUMAN PAPILLOMA VIRUS-ASSOCIATED CANCERS” (LOMA LINDA UNIVERSITY, priority 2021, published 2025).
Entries after “also recorded” stand apart in the source; their conditions may differ.

What was measured:
SCC47 and SCC19 = assay: Apoptosis analysis after irradiation (flow cytometry); format: cell-based
Protocol: Kinetics of G2-M arrest when SCC47 and SCC19 are irradiated with or without GA-OH. Cells were treated with radiation (4Gy) followed by GA-OH before cell cycle analysis was performed using […] flow cytometry assay after 24 hours. FIGS. 17A-17B are graphical representations of the kinetics of G2-M arrest when SCC47 and SCC19 are irradiated and followed by treatment with control or with GA-OH, as measured by flow cytometry assays after 24 hours. Cells are arrested to the same extent in the short term (first 12 hours) but over extended periods, SCC19 cells exit the G2-M stage quicker. In the HPV^+ but not HPV^− line, the addition of GA-OH to the radiation protocol delays the exit from the exit the G2-M stage at 24 hours as compared to radiation alone. Apoptosis analysis of SCC47 and SCC19 was performed after irradiation and followed by treatment with control or with GA-OH, as measured by flow cytometry assays after 24 hours. FIGS. 18A-18B are graphical representations of the apoptotic analysis of SCC47 and SCC19 after irradiation with or without GA-OH after 24 hours, as measured by flow cytometry assays. Radiation induces minimal apoptosis on its own.

SCC47 (HPV+) = assay: Cell cycle analysis after irradiation (PI flow cytometry); format: cell-based; settings: SCC47, radiation (4Gy) followed by GA-OH, 24 hours
Protocol: Cells were treated with radiation (4Gy) followed by GA-OH before cell cycle analysis was performed using propidium iodide (PI) flow cytometry assay after 24 hours. FIGS. 15A-15B are graphical representations of the cell cycle analysis of SCC47 and SCC19 cell lines after irradiation and followed by treatment with control or with GA-OH, as measured by flow cytometry assays after 24 hours. In both cell lines, G2-M is the most affected stage of cell cycle and there is increase in G2-M arrested cells. The HPV^+ cell line—SCC47 has a higher proportion of cells that are still arrested in G2-M phase after 24 hours compared to the HPV^− cell line—SCC19. FIGS. 16A-16B are graphical representations of the fraction of G2-M arrested cells in SCC47 and SCC19 lines after irradiation and followed by treatment with control or with GA-OH, as measured by flow cytometry assays after 24 hours. […]
Kinetics of G2-M arrest when SCC47 and SCC19 are irradiated with or without GA-OH. […] FIGS. 17A-17B are graphical representations of the kinetics of G2-M arrest when SCC47 and SCC19 are irradiated and followed by treatment with control or with GA-OH, as measured by flow cytometry assays after 24 hours. […] Apoptosis analysis of SCC47 and SCC19 was performed after irradiation and followed by treatment with control or with GA-OH, as measured by flow cytometry assays after 24 hours. […]

[1] = test system: HPV- (SCC19, SCC29) and HPV+ (SCC47, SCC104, SCC152) HNSCC cell lines; assay: Sensitization of HNSCC cell lines to photon radiation; format: cell-based; settings: radiation 0-4Gy followed by inhibitor; DER10
Protocol: The dose enhancement ratio for 10% survival (DER10) was calculated as follows: DER10=(Dose correlated with 10% survival fraction in radiation-treated cells)/(Dose correlated with 10% survival fraction in radiation and inhibitor treated cells).
CCDP, Cetuximab, and GA-OH were evaluated for their ability to sensitize HNSCC cell lines to photon radiation.
Colonies were counted after 14-21 days and normalized to vehicle control and survival analysis was performed.
Sensitization of an additional HPV^+ cell line to radiation by CDDP, Cetuximab and GA-OH was evaluated.

[2] = test system: SCC104 (HPV+ HNSCC cell line); assay: MTT cell viability of gambogic acid analogs; format: cell-based; settings: SCC104, 24 hr
Protocol: Next, the analogs were evaluated for functional activity using the HPV^+ HNSCC cell line, SCC104, in the MTT assay as described previously to determine whether similar findings would be observed as in the in vitro AlphaScreen™ analysis. With one exception, the patterns were similar to the AlphaScreen™ data, but the differences were relatively more pronounced in the cell-based screen (FIG. 6B). […] Based on these findings, 30-hydroxygambogic acid (GA-OH) was selected as a candidate for more extensive functional studies.
(§1) Using the SciFinder and Zinc15 databases, several gambogic acid structural analogs were identified and selected. The 8 analogs were obtained as follow: gambogenic amide (Enzo Life Sciences), gambogenic acid (Selleckchem), morellic acid (Aobious), 30-hydroxy gambogic acid (Quality Phytochemicals, LLC), acetyl gambogic acid (Microsource), and gambogin, neogambogic acid and isomorellinol (MolPort Natural Products). Additional gambogic acid was purchased from Tocris. The interactions of the analogues with E6-caspase 8 was tested using AlphaScreen™ technology using the same protocol as with the primary screen, and were compared to the parent compound. The effect on cell viability was also similarly done in HPV^+ and HPV^− cell lines via the MTT assay (see below) and potency was determined using GraphPad IC50 curve fitting.
All working concentrations were diluted in PBS to the desired concentration before use. To test the effect of gambogic acid and/or its derivatives on cell viability, all cell lines were seeded at 2×10^4 per well in 96-well plates and allowed to adhere overnight. Various concentrations of the analogues were added and the cells incubated at 37° C. for 24 hr. Viability was then measured using the MTT assay, performed as described previously. All experiments were repeated at least three times (three biological replicates, carried out on different days). Data presented are from a representative experiment. Cell viability and potency were assessed from % inhibition relative to the vehicle control, and IC50 dose curves were generated using GraphPad Prism.

[3] = target: T1, full-length HPV E6 binding to human Caspase 8 (Human papillomavirus type 16, UniProt P03126); settings: SAR analogs
T1 construct: made in house; host or cells: E. coli
Protocol: Three structurally diverse libraries (Prestwick library, Microsource Spectrum library and an in-house collection at Kansas University; see Table 1) were screened for the ability of compounds to inhibit the binding of full-length HPV E6 to human Caspase 8 using a previously optimized AlphaScreen™ protocol.
The compounds were diluted to a working concentration in DMSO and screened at a single-point final concentration of 10 μM with no replicates. Briefly, 75 nL of each compound was transferred and added to wells of the destination 384-well plate using the Echo dispenser to 4 μL of blocking solution. 4 μL of 800 nM GST-E6 and 4 μL of His6-Caspase 8 were added and pre-incubated at room temperature for 60 minutes. 8 μL of the donor and acceptor bead mixture (final concentration of 20 μg/ml) was then added. The plates were sealed and incubated for 4 hours at room temperature before the plates were read using the Envision™ Multi-Label plate reader (Perkin Elmer Inc.). […] A 10-point serial dilution of these compounds was done for dose-dependency reconfirmation. Dose response inhibition curves were constructed and IC50 calculated using GraphPad Prism using four parameter non-linear regression analysis.
The first counter-screen assay was based using the GST-His6 fusion peptide as the E6-binding partner instead of GST-E6-His6-Caspase 8. Hit candidate compounds from the primary screen were prepared using a 6-point serial dilution. Using an Echo dispenser, compounds were transferred to plates containing 4 μL of blocking buffer. 8 μL of 5 nM GST-His6 peptide substrate was then added. The mixture was pre-incubated at room temperature for 60 minutes. Glutathione donor and nickel chelate acceptor beads (final concentration 20 μg/mL) were added and incubated for another 60 minutes at room temperature. Dose-dependency of the compounds using GST-E6-His6-Caspase 8 was performed in parallel using the same protocol as in the primary screen. The signals were then read using the Envision™ plate reader.
as §1

T1 sequence (P03126 whole entry): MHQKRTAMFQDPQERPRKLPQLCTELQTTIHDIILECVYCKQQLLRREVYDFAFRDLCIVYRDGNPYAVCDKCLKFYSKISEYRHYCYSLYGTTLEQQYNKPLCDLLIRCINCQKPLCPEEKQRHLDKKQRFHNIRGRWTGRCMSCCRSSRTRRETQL

**Q.** With 30-hydroxygambogic acid [GA-OH] as the substance, how does the “apoptosis, agent alone” value (SCC47 and SCC19; 24 hours) read?
**A.** appreciable apoptosis

**Q.** What about the “apoptosis, combination with radiation” value (SCC47 and SCC19; SCC47 compared to SCC19, 24 hours) of the same substance?
**A.** greater apoptosis and at a greater rate

**Q.** And the G2-M arrest (SCC47 (HPV+))?
**A.** increased arrest at 24 hours as compared to radiation alone

**Q.** And the “sensitization to photon radiation” value [1]?
**A.** most sensitization in HPV+ cell lines; also recorded: less than that of CDDP but greater than cetuximab

**Q.** What about the “potency in MTT assay” value [2] of the same substance?
**A.** highest potency of all analogs

**Q.** What about the “inhibition of E6-caspase 8 binding relative to GA” value [3] of the same substance?
**A.** more effectively inhibited E6 binding to caspase 8 than any of the other analogs or the parent compound
